Reference: PubChem BioAssay AID248 (DTP/NCI, 2004)
Several values for one entry are separate records, joined by “and”; a condition that tells them apart may be missing. Identical values can stand only once. Toxic doses and inconclusive results are not listed. Rule as the data show it: active = T/C of 150% or more; inactive = T/C below 125%.

Test system: L1210 leukemia ip in BDF1 mice, survival T/C
Experiment: NCI In Vivo Anticancer Drug Screen. Data for tumor model L1210 Leukemia (intraperitoneal) in B6D2F1 (BDF1) mice
Details: endpoint: mean survival time, higher = longer survival
In short: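 Mice bearing the transplanted tumor received compound or vehicle. Survival of the treated group was divided by that of the vehicle-treated control group to give the ratio.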

[1] = dose: 50.0 mg/kg/injection, schedule: Q01DX009 (ip), vehicle: water
[2] = dose: 100.0 mg/kg/injection, schedule: Q04DX003 (ip), vehicle: other
[3] = dose: 200.0 mg/kg/injection, schedule: Q04DX003 (ip), vehicle: other
[4] = dose: 400.0 mg/kg/injection, schedule: Q04DX003 (ip), vehicle: other
[5] = dose: 100.0 mg/kg/injection, schedule: Q01DX009 (ip), vehicle: Klucel (hydroxypropylcellulose) (HPC)
[6] = dose: 200.0 mg/kg/injection, schedule: Q01DX009 (ip), vehicle: Klucel (hydroxypropylcellulose) (HPC)
[7] = dose: 400.0 mg/kg/injection, schedule: Q01DX009 (ip), vehicle: Klucel (hydroxypropylcellulose) (HPC)
[8] = dose: 100.0 mg/kg/injection, schedule: Q04DX003 (ip), vehicle: Klucel (hydroxypropylcellulose) (HPC)
[9] = dose: 200.0 mg/kg/injection, schedule: Q04DX003 (ip), vehicle: Klucel (hydroxypropylcellulose) (HPC)
[10] = dose: 400.0 mg/kg/injection, schedule: Q04DX003 (ip), vehicle: Klucel (hydroxypropylcellulose) (HPC)
[11] = dose: 75.0 mg/kg/injection, schedule: Q01DX001 (ip), vehicle: saline

Measured: T/C

CCOC(=O)c1c[nH]c2ccc(N(CCCl)CCCl)cc12
inactive: dose: 5.0 mg/kg/injection, schedule: Q01DX001 (ip), vehicle: carboxymethylcellulose (CMC) 98 % of control | dose: 10.0 mg/kg/injection, schedule: Q01DX001 (ip), vehicle: carboxymethylcellulose (CMC) 104 % of control | dose: 20.0 mg/kg/injection, schedule: Q01DX001 (oral), vehicle: carboxymethylcellulose (CMC) 98 % of control | dose: 40.0 mg/kg/injection, schedule: Q01DX001 (oral), vehicle: carboxymethylcellulose (CMC) 103 % of control | dose: 80.0 mg/kg/injection, schedule: Q01DX001 (oral), vehicle: carboxymethylcellulose (CMC) 103 % of control | dose: 160.0 mg/kg/injection, schedule: Q01DX001 (oral), vehicle: carboxymethylcellulose (CMC) 107 % of control | dose: 320.0 mg/kg/injection, schedule: Q01DX001 (oral), vehicle: carboxymethylcellulose (CMC) 115 % of control

CN(C)NCCOC(c1ccccc1)c1ccccc1
inactive: dose: 25.0 mg/kg/injection, schedule: Q04DX002 (ip), vehicle: Klucel (hydroxypropylcellulose) (HPC) 102 % of control | dose: 50.0 mg/kg/injection, schedule: Q04DX002 (ip), vehicle: Klucel (hydroxypropylcellulose) (HPC) 106 % of control | dose: 100.0 mg/kg/injection, schedule: Q04DX002 (ip), vehicle: Klucel (hydroxypropylcellulose) (HPC) 95 % of control and 108 % of control

CC(=O)Nc1cc(N)cc(NC(C)=O)c1
inactive: [1] 91 % of control | dose: 100.0 mg/kg/injection, schedule: Q01DX009 (ip), vehicle: water 103 % of control and 107 % of control | dose: 100.0 mg/kg/injection, schedule: Q04DX003 (ip), vehicle: water 100 % of control | dose: 200.0 mg/kg/injection, schedule: Q01DX009 (ip), vehicle: water 102 % of control and 103 % of control | dose: 200.0 mg/kg/injection, schedule: Q04DX003 (ip), vehicle: water 98 % of control | dose: 400.0 mg/kg/injection, schedule: Q01DX009 (ip), vehicle: water 93 % of control

CCCCCCc1cc(N=Nc2ccc(S(=O)(=O)Nc3nccs3)cc2)c(O)cc1O
inactive: dose: 100.0 mg/kg/injection, schedule: Q01DX001 (ip), vehicle: carboxymethylcellulose (CMC) 95 % of control | dose: 200.0 mg/kg/injection, schedule: Q01DX001 (ip), vehicle: carboxymethylcellulose (CMC) 98 % of control | dose: 400.0 mg/kg/injection, schedule: Q01DX001 (ip), vehicle: carboxymethylcellulose (CMC) 95 % of control

C/C(CC(O)(C(F)(F)F)C(F)(F)F)=N\Nc1ccccc1
inactive: [2] 102 % of control | [3] 97 % of control | [4] 106 % of control

COc1ccc(C(=O)N/N=C/c2ccc(C)cc2)cc1
inactive: [5] 102 % of control | [6] 102 % of control | [7] 105 % of control

CC(=O)c1ccc(OS(=O)(=O)c2ccc([N+](=O)[O-])cc2)cc1
inactive: [5] 90 % of control | [8] 94 % of control | [6] 90 % of control | [9] 94 % of control | [7] 86 % of control | [10] 89 % of control

COc1ccccc1NC(=O)Nc1ccc(F)cc1
inactive: [5] 95 % of control | [8] 95 % of control | [6] 92 % of control | [9] 92 % of control | [7] 108 % of control | [10] 94 % of control

Cc1ccc(S(=O)(=O)Oc2ccccc2)cc1
inactive: [5] 96 % of control | [8] 94 % of control | [6] 100 % of control | [9] 94 % of control | [7] 97 % of control | [10] 92 % of control

O=C(O)CNC1CSSC1
inactive: dose: 25.0 mg/kg/injection, schedule: Q01DX009 (ip), vehicle: water 106 % of control | [1] 106 % of control

CC(=O)OC(C1C[C@@]2(C)[C@@H](CC[C@@H]3[C@@H]2CC[C@]2(C)[C@@H](OC(C)=O)CC[C@@H]32)CC1=O)C(F)(F)F (stereo partly specified)
inactive: dose: 50.0 mg/kg/injection, schedule: Q01DX009 (ip), vehicle: carboxymethylcellulose (CMC) 97 % of control | dose: 100.0 mg/kg/injection, schedule: Q01DX009 (ip), vehicle: carboxymethylcellulose (CMC) 89 % of control | dose: 200.0 mg/kg/injection, schedule: Q01DX009 (ip), vehicle: carboxymethylcellulose (CMC) 95 % of control

Cc1ccc(C)c(C2NC(=O)c3ccccc3N2)c1 (stereo unspecified)
inactive: [5] 102 % of control | [8] 106 % of control | [6] 106 % of control | [9] 90 % of control | [7] 103 % of control | [10] 93 % of control

O=C(O)c1ccccc1C(=O)c1cccc2ccccc12
inactive: dose: 100.0 mg/kg/injection, schedule: Q04DX002 (ip), vehicle: gum acacia 102 % of control | dose: 200.0 mg/kg/injection, schedule: Q04DX002 (ip), vehicle: gum acacia 104 % of control | dose: 400.0 mg/kg/injection, schedule: Q04DX002 (ip), vehicle: gum acacia 95 % of control

C[CH2][Ge]([CH2]C)[O][Ge]([CH2]C)[CH2]C.C[CH2][Ge]([CH2]C)[O][Ge]([CH2]C)[CH2]C
inactive: dose: 5.0 mg/kg/injection, schedule: Q04DX002 (ip), vehicle: saline with Tween-80 96 % of control | dose: 10.0 mg/kg/injection, schedule: Q04DX002 (ip), vehicle: saline with Tween-80 96 % of control | dose: 20.0 mg/kg/injection, schedule: Q04DX002 (ip), vehicle: saline with Tween-80 100 % of control

C/C(=C\C(=O)O)Cc1ccccc1 (tested in a mixture with another compound)
inactive: dose: 50.0 mg/kg/injection, schedule: Q04DX003 (ip), vehicle: other 106 % of control | [2] 115 % of control | [3] 114 % of control | [4] 103 % of control

COc1ccc2c(c1)CCC1=C2CCC2C1C(=O)CCC21OCCCO1 (stereo unspecified)
inactive: [8] 100 % of control | [9] 96 % of control | [10] 96 % of control

OC1CSC2=[N+]1CCS2 (stereo unspecified)
inactive: [11] 98 % of control | dose: 150.0 mg/kg/injection, schedule: Q01DX001 (ip), vehicle: saline 112 % of control | dose: 300.0 mg/kg/injection, schedule: Q01DX001 (ip), vehicle: saline 111 % of control

Clc1ccc(N=CC2CCC=CO2)cc1 (stereo unspecified)
inactive: dose: 222.0 mg/kg/injection, schedule: Q01DX Z (ip), vehicle: saline 92 % of control | dose: 333.0 mg/kg/injection, schedule: Q01DX Z (ip), vehicle: saline 95 % of control | dose: 500.0 mg/kg/injection, schedule: Q01DX Z (ip), vehicle: saline 92 % of control

CC(=O)OC1=COc2c(Cl)ccc3cccc1c23
inactive: dose: 100.0 mg/kg/injection, schedule: Q01DX001 (ip), vehicle: Klucel (hydroxypropylcellulose) (HPC) 103 % of control | dose: 200.0 mg/kg/injection, schedule: Q01DX001 (ip), vehicle: Klucel (hydroxypropylcellulose) (HPC) 109 % of control | dose: 400.0 mg/kg/injection, schedule: Q01DX001 (ip), vehicle: Klucel (hydroxypropylcellulose) (HPC) 97 % of control

Cc1ccc(NC(=O)Oc2c(C)cccc2C)c([N+](=O)[O-])c1
inactive: dose: 50.0 mg/kg/injection, schedule: Q01DX009 (ip), vehicle: Klucel (hydroxypropylcellulose) (HPC) 93 % of control | [5] 87 % of control

Cc1nnnn1C12CC3CC(CC(C3)C1)C2
inactive: dose: 18.8 mg/kg/injection, schedule: Q01DX001 (ip), vehicle: saline 110 % of control | dose: 37.5 mg/kg/injection, schedule: Q01DX001 (ip), vehicle: saline 100 % of control | [11] 105 % of control

CNC(=O)Nc1c(C)cccc1C
inactive: [5] 93 % of control | [8] 106 % of control | [6] 93 % of control | [9] 101 % of control | [7] 97 % of control | [10] 98 % of control

N/N=C/c1ccccc1[N+](=O)[O-]
inactive: dose: 100.0 mg/kg/injection, schedule: Q01DX001 (ip), vehicle: other 97 % of control | dose: 200.0 mg/kg/injection, schedule: Q01DX001 (ip), vehicle: other 95 % of control | dose: 400.0 mg/kg/injection, schedule: Q01DX001 (ip), vehicle: other 111 % of control

CC(=O)Nc1c(I)cc(I)c(C(=O)O)c1I
inactive: dose: 100.0 mg/kg/injection, schedule: Q04DX003 (ip), vehicle: saline sonified 98 % of control | dose: 200.0 mg/kg/injection, schedule: Q04DX003 (ip), vehicle: saline sonified 101 % of control | dose: 400.0 mg/kg/injection, schedule: Q04DX003 (ip), vehicle: saline sonified 103 % of control

Cc1ccc(C(OC(=O)c2ccccc2)c2nccc3ccccc23)cc1 (stereo unspecified)
inactive: dose: 100.0 mg/kg/injection, schedule: Q01DX001 (ip), vehicle: saline 86 % of control | dose: 200.0 mg/kg/injection, schedule: Q01DX001 (ip), vehicle: saline 98 % of control | dose: 400.0 mg/kg/injection, schedule: Q01DX001 (ip), vehicle: saline 98 % of control
